According to patent US9504685B2, “Method for treating a pulmonary hypertension condition” (Gilead Sciences, Inc., priority 2006, dated 2016):

Test system: subjects with PAH
Experiment: Example 1 (ARIES-2) placebo-controlled Phase III trial, efficacy
Type: in vivo, human
Method: The primary objective of this study was to determine the effect of ambrisentan on exercise capacity in subjects with PAH. The secondary objectives of this study were to evaluate effects of ambrisentan on other clinical measures of PAH, as well as safety and tolerability of the study drug.
Study drug was provided in round, biconvex, oral tablets that were identical in appearance. Three strengths of active study drug, containing 1 mg, 2.5 mg or 5 mg of ambrisentan, were used in this study. All study drug was packaged in blister cards. Subjects were instructed to take study drug once daily (q.d.) by mouth (p.o.) in the morning, with or without food.
The maximum study duration was up to 14 weeks from the time of initial screening procedures to the final study visit (Week 12). Screening procedures were performed a maximum of 2 weeks prior to the first dose of study drug. The maximum duration of study drug treatment was 12 weeks.
Men and women, 18 years of age or older, with idiopathic PAH, PAH associated with connective tissue disease (CTD), e.g., mixed CTD, CREST syndrome, systemic sclerosis (scleroderma), overlap syndrome or systemic lupus erythematosus, or PAH associated with anorexigen use or HIV infection were enrolled in this study. Subjects were to have a documented mean PAP≧25 mmHg, PVR>3 mmHg/L/min, and PCWP or LVEDP<15 mmHg. Subjects must have been able to walk a distance of at least 150 m but no more than 450 m during 2 consecutive 6MWTs to be eligible for inclusion in the study.
After a 2 week screening period, eligible subjects were stratified based on the underlying etiology of PAH (idiopathic or non-idiopathic) and were randomized to 1 of 3 treatment groups (placebo, 2.5 mg or 5 mg ambrisentan) in a ratio of 1:1:1. One blinded dose reduction was permitted during the 12-week treatment period in the event of study drug intolerance (e.g., 5 mg to 2.5 mg, 2.5 mg to 1 mg, placebo to placebo). Subjects received a daily dose of 1 mg ambrisentan only if they reduced from the 2.5 mg dose group. Subjects were assessed for efficacy and safety at monthly intervals.
Therefore, after a minimum treatment period of 4 weeks, subjects who met 2 or more of the following predefined early escape criteria may have been removed from the study: • (a) a decrease from baseline of at least 20% in 6MWD; • (b) an increase of 1 or more WHO functional class; • (c) worsening right ventricular failure (e.g., as indicated by increased jugular venous pressure, new or worsening hepatomegaly, ascites or peripheral edema); • (d) rapidly progressing cardiogenic, hepatic or renal failure; and/or • (e) refractory systolic hypotension (systolic blood pressure <85 mmHg).
The primary efficacy endpoint was change from baseline in 6MWD evaluated after 12 weeks of treatment compared to placebo.
The secondary efficacy endpoints included: • (a) time to clinical worsening of PAH, as defined by the time from randomization to the first occurrence of death, lung transplantation, hospitalization for PAH, atrial septostomy, study discontinuation due to addition of other PAH therapeutic agents, or study discontinuation due to 2 or more early escape criteria; • (b) change from baseline measured after 12 weeks of treatment compared to placebo in: • (i) WHO functional class; • (ii) SF-36® health survey physical functioning scale; • (iii) BDI immediately following exercise; and/or • (iv) an assessment of the safety and tolerability of the study drug; and • (c) change from baseline measured after 12 weeks of treatment compared to placebo in plasma levels of ET-1, cTnT and BNP. Safety Assessments
For the ITT population, subjects were considered as belonging to their randomized treatment group, regardless of the actual treatment received.
The primary efficacy endpoint was the change from baseline in 6MWD evaluated after 12 weeks of treatment compared to placebo, where the last observation was carried forward. […]

[1] = 5 mg once daily, baseline to Week 12
[2] = combined 2.5 mg and 5 mg groups, 12 weeks
[3] = combined 2.5 mg and 5 mg groups, ITT population
[4] = combined 2.5 mg and 5 mg groups, baseline to Week 12

Compound: COC(c1ccccc1)(c1ccccc1)[C@H](Oc1nc(C)cc(C)n1)C(=O)O [ambrisentan]
- Change in SF-36 Role-physical, mean (SD) [1]: +7.61 (10.41)
- Change in SF-36 Social functioning, mean (SD) [1]: +4.85 (11.89)
- Change in SF-36 Vitality, mean (SD) [1]: +5.21 (8.79)
- Change in WHO functional class: +1 class [1]: 2 (3.2) subjects (% of ITT population)
- Change in WHO functional class: +2 classes [1]: 0 (0.0) subjects (% of ITT population)
- Change in WHO functional class: no change [1]: 52 (82.5) subjects (% of ITT population)
- Change in WHO functional class: −1 class [1]: 8 (12.7) subjects (% of ITT population)
- Change in WHO functional class: −2 classes [1]: 1 (1.6) subjects (% of ITT population)
- placebo-adjusted 6MWD change from baseline at Week 12 (South American subgroup, 2.5 mg once daily): +50.5 m
- placebo-adjusted 6MWD change from baseline at Week 12 (South American subgroup, 5 mg once daily): +79.5 m
- placebo-adjusted 6MWD change from baseline at Week 12 (WHO class I/II subgroup, 2.5 mg once daily): +44.1 m
- placebo-adjusted 6MWD change from baseline at Week 12 (WHO class I/II subgroup, 5 mg once daily): +67.7 m
- placebo-adjusted 6MWD change from baseline at Week 12 (WHO class III/IV subgroup, 2.5 mg once daily): +17.6 m
- placebo-adjusted 6MWD change from baseline at Week 12 (WHO class III/IV subgroup, 5 mg once daily): +51.8 m
- placebo-adjusted BDI at Week 12 (combined 2.5 mg and 5 mg groups): −1.1
- Clinical worsening event: Atrial septostomy [2]: 0 (0.0) subjects (% of ITT population)
- Clinical worsening event: Death [2]: 2 (1.6) subjects (% of ITT population)
- Clinical worsening event: Escape criteria [2]: 3 (2.4) subjects (% of ITT population)
- Clinical worsening event: Hospitalization for PAH [2]: 5 (3.9) subjects (% of ITT population)
- Clinical worsening event: Lung transplantation [2]: 0 (0.0) subjects (% of ITT population)
- Clinical worsening event: Study withdrawal due to addition of PAH treatment [2]: 0 (0.0) subjects (% of ITT population)
- Clinical worsening: Total subjects with ≧1 event [2]: 6 (4.7) subjects (% of ITT population)
- Change in 6MWD from baseline to Week 12, mean [3]: +35.7 meters
- Week 12 6MWD, mean [3]: 387.0 meters
- subjects who deteriorated by at least 1 WHO class (combined 2.5 mg and 5 mg groups, Week 12): 3.9%
- Change in SF-36 Bodily pain, mean (SD) [4]: +1.40 (10.96)
- Change in SF-36 General health, mean (SD) [4]: +4.40 (7.40)
- Change in SF-36 Mental component summary, mean (SD) [4]: +5.17 (11.00)
- Change in SF-36 Mental health, mean (SD) [4]: +4.50 (9.88)
- Change in SF-36 Physical component summary, mean (SD) [4]: +3.38 (7.69)
- Change in SF-36 Role-emotional, mean (SD) [4]: +5.63 (13.86)
- Change in SF-36 Role-physical, mean (SD) [4]: +6.74 (11.07)
- Change in SF-36 Social functioning, mean (SD) [4]: +4.70 (10.81)
- Change in SF-36 Vitality, mean (SD) [4]: +4.64 (8.94)
- Change in WHO functional class: +1 class [4]: 4 (3.1) subjects (% of ITT population)
- Change in WHO functional class: +2 classes [4]: 1 (0.8) subjects (% of ITT population)
- Change in WHO functional class: no change [4]: 103 (81.1) subjects (% of ITT population)
- Change in WHO functional class: −1 class [4]: 18 (14.2) subjects (% of ITT population)
- Change in WHO functional class: −2 classes [4]: 1 (0.8) subjects (% of ITT population)
- placebo-adjusted 6MWD change from baseline at Week 12 (eastern European subgroup, 2.5 mg once daily): +66.1 m
- placebo-adjusted 6MWD change from baseline at Week 12 (eastern European subgroup, 5 mg once daily): +88.0 m
- placebo-adjusted 6MWD change from baseline at Week 12 (female subjects, 2.5 mg once daily): +42.5 m
- placebo-adjusted 6MWD change from baseline at Week 12 (female subjects, 5 mg once daily): +75.7 m
- placebo-adjusted 6MWD change from baseline at Week 12 (idiopathic PAH subgroup, 2.5 mg once daily): +56.3 m
- placebo-adjusted 6MWD change from baseline at Week 12 (idiopathic PAH subgroup, 5 mg once daily): +75.7 m
- placebo-adjusted 6MWD change from baseline at Week 12 (male subjects, 2.5 mg once daily): +6.8 m
- placebo-adjusted 6MWD change from baseline at Week 12 (male subjects, 5 mg once daily): +2.7 m
- placebo-adjusted 6MWD change from baseline at Week 12 (non-idiopathic PAH subgroup, 2.5 mg once daily): −12.6 m
- placebo-adjusted 6MWD change from baseline at Week 12 (non-idiopathic PAH subgroup, 5 mg once daily): +29.5 m
- reduction in the probability of clinical worsening (hazard ratio) compared to placebo (subjects receiving ambrisentan (combined group), 12 weeks): 80%
- subjects hospitalized for PAH (subjects receiving ambrisentan (combined), 12 weeks): 3.9%
- placebo-adjusted 6MWD change from baseline at Week 12 (western European/Israel subgroup, 2.5 mg once daily): +3.0 m
- placebo-adjusted 6MWD change from baseline at Week 12 (western European/Israel subgroup, 5 mg once daily): +39.4 m
